Assay results reported in patent US20050202424A1, “Regulators of biofilm formation and uses thereof” (priority 2001, published 2005).
In brackets after ≈: the same amount, converted by molar mass.

How the values were obtained:
PA14 RSCV = test: Resistance of PA14 RSCV colonies to antibiotics on plates; type: cell-based, Pseudomonas aeruginosa; settings: for resistance of PA14 RSCV colonies: 8 individual colonies
Description: To induce such phenotypic variants, an overnight culture of P. aeruginosa strain PA14 (UCBPP-PA14) was inoculated onto Luria-Bertani (LB) containing 200 μg/ml of kanamycin, incubated at 37° C. for 48 hours, at which time, antibiotic resistant rough small variants were isolated. Antibiotic resistant colonies arose at a frequency of 10^−6-10^−7. […] In addition to being resistant to kanamycin, (up to 40 times the susceptibility level of the wild-type), 8 individual PA14 RSCV colonies tested were also resistant to amikacin (30 μg/ml), carbenicillin (300 μg/ml), gentamicin (30 μg/ml), tobramycin (10 μg/ml), and tetracycline (150 μg/ml). Consistent with this latter result, antibiotic resistant variants were also obtained at frequencies of about 10^−7 by plating overnight cultures of PA14 on media containing similar concentrations of the antibiotics mentioned above.

[1] = tested on: P. aeruginosa small colony variants in CF sputum samples; test: Antibiotic resistant small colony variants in CF sputum samples plated on cetrimide agar with and without antibiotics; type: cell-based, Pseudomonas aeruginosa
Description: Five CF sputum samples from the Clinical Microbiology Laboratory at Massachusetts General Hospital were suspended in 5 ml of 10 mM MgSO4. Serial dilutions of the samples were then plated onto cetrimide agar plates with and without antibiotics. The plates were screened for the presence of P. aeruginosa after 24 and 48 hours of incubation at 37° C. The identity of the colonies was later confirmed by probing colony lifts with the exotoxin A gene from P. aeruginosa. To this end, the EcoRI-HindIII fragment of plasmid pRGI containing the exoA gene (Samadpour et al., J. Clin. Microbiol. 26:2319-23, 1988) was gel isolated and labeled using a random priming kit (Boehringer, Mannheim, Indianapolis, Ind.). Colonies were transferred to nylon membranes and hybridizations were performed according to the manufacturer's recommendations (NEN Research Products, Boston, Mass.). Identification of colonies carrying the exoA gene was then performed using a Phosphorimager (Amersham Pharmacia Biotech Inc., Piscataway, N.J.).
The presence of P. aeruginosa antibiotic resistant small colony variants was determined by plating CF sputum samples on cetrimide agar with and without the indicated antibiotics. […]

wild-type PA14 = test: Minimal inhibitory concentration of kanamycin in liquid culture; type: cell-based; settings: Pseudomonas aeruginosa; PA14 in M63 liquid medium; read-out: concentration of kanamycin required to inhibit growth (MIC)
Description: Phenotypic variation is a common phenomenon in Gram-negative bacteria that often involves environmentally regulated changes in observable phenotypes produced by modifications in surface components. The effect that different environmental stimuli had on the appearance of kanamycin-resistant phenotypic variants was examined. Bacteria were grown in LB broth, or in supplemented LB with appropriate antibiotics at the indicated temperature with aeration. […] Moreover, the frequency of variants increased 200-fold when plates were incubated at 25° C. compared to 37° C. (FIG. 2A). Finally, a dramatic 10^6-fold increase was obtained on minimal M63 salts as compared to LB medium (FIG. 2A). Minimal salt media consisted of M63 supplemented with 0.3% glucose, 1 mM MgSO4, and 0.5% casamino acids. Importantly, there was a correlation between the frequency of appearance of kanamycin resistant variants on plates and minimal inhibitory concentrations (MICs) of kanamycin in liquid culture for the wild-type PA14 using the culture conditions described above (FIG. 2B).

[2] = tested on: PA14 and PA14 RSCV biofilms; test: Biofilm resistance to tobramycin in flow chambers (viable biomass by CSLM of GFP-tagged cells); type: cell-based, Pseudomonas aeruginosa; settings: continuous flow of tobramycin 200 μg/ml on established biofilms
Description: To determine whether the antibiotic resistant phenotype of PA14 RSCV is associated with altered biofilm formation, PA14 RSCV was cultured under biofilm-forming conditions as follows. For biofilm characterization, PA14 RSCV biofilms were cultivated under continuous culture conditions in flow-chambers with channel dimensions of 12 by 52 by 2 mm. Flow media consisted of M63 supplemented with 0.5% casamino acids and 0.3% glucose. For measurement of biofilm resistance, bacteria were cultivated in flow-chambers with channel dimensions of 1 by 40 by 4 mm (Stovall Inc., Greensboro, N.C.). In this case, flow media consisted of FAB medium (0.1 mM CaCl2, 0.01 mM Fe-EDTA, 0.15 mM NH4SO4, 0.33 mM Na2HPO4, 0.2 mM KH2PO4 and 1 mM MgCl2) supplemented with casamino acids (0.5%) and sodium citrate (10 mM). Flow-cells in both cases were inoculated with 100-fold dilutions of overnight cultures of PA14 and PA14 RSCV carrying the green fluorescent protein (GFP) in plasmid SMC21, a derivative of pSMC2 (Bloemberg et al., Appl. Environ. Microbiol. 63: 4543-4551, 1997). […] The volume (in μm^3) of individual biofilm structures was determined from serial sections using ImageSpace software (Molecular Dynamics, Sunnyvale, Calif.).
Viable biomass was measured by CSLM analysis of GFP-tagged PA14 and PA14 RSCV cells using GFP expression as a viability marker as described previously (FIG. 1E).

[3] = Sample 5, patient on Amikacin(IV)/Ceftazidime(IV)
[4] = Sample 38, patient on Tobramycin (I)/Levofloxacin
[5] = Sample 41, no antibiotic treatment
[6] = Sample 42, no antibiotic treatment
[7] = Sample 43, no antibiotic treatment

Molecule	resistance of PA14 RSCV colonies (PA14 RSCV; amikacin 30 μg/ml)	Variants resistant to antibiotic (%) [1, 3] [%]	Variants resistant to antibiotic (%) [1, 4] [%]	Variants resistant to antibiotic (%) [1, 5] [%]	Variants resistant to antibiotic (%) [1, 6] [%]	Variants resistant to antibiotic (%) [1, 7] [%]	resistance of PA14 RSCV colonies (PA14 RSCV; carbenicillin 300 μg/ml)	MIC (wild-type PA14) [µg/mL]	resistance to kanamycin relative to the susceptibility level of the wild-type (PA14 RSCV; PA14 RSCV colonies)	resistance of PA14 RSCV colonies (PA14 RSCV; tobramycin 10 μg/ml)	resistance of PA14 RSCV biofilm to tobramycin treatment versus wild-type PA14 biofilm [2]	resistance of PA14 RSCV colonies (PA14 RSCV; gentamicin 30 μg/ml)
NCC[C@H](O)C(=O)N[C@@H]1C[C@H](N)[C@@H](O[C@H]2O[C@H](CN)[C@@H](O)[C@H](O)[C@H]2O)[C@H](O)[C@H]1O[C@H]1O[C@H](CO)[C@@H](O)[C@H](N)[C@H]1O [amikacin]	resistant	100	100	15	5	0.2						
CC1(C)S[C@@H]2[C@H](NC(=O)C(C(=O)O)c3ccccc3)C(=O)N2[C@H]1C(=O)O (some centres unmarked) [carbenicillin]							resistant					
NC[C@H]1O[C@H](O[C@H]2[C@H](O)[C@@H](O[C@H]3O[C@H](CO)[C@@H](O)[C@H](N)[C@H]3O)[C@H](N)C[C@@H]2N)[C@H](O)[C@@H](O)[C@@H]1O [kanamycin]								475 (≈ 980 µM)	up to 40 times			
CN(C)[C@@H]1C(O)=C(C(N)=O)C(=O)[C@@]2(O)C(O)=C3C(=O)c4c(O)cccc4[C@@](C)(O)[C@H]3C[C@@H]12 [tetracycline]		30	32	0	0							
NC[C@H]1O[C@H](O[C@H]2[C@H](O)[C@@H](O[C@H]3O[C@H](CO)[C@@H](O)[C@H](N)[C@H]3O)[C@H](N)C[C@@H]2N)[C@H](N)C[C@@H]1O [tobramycin]		50	100	0.10	0	0.5				resistant	more resistant	
gentamicin		100	100	10	6.6	0.5						resistant
